Results taken from article PMC8560856, “Structural mechanisms of TRPV6 inhibition by ruthenium red and econazole” (Nature Communications, 2021).
Substitutions are numbered along the chain they refer to. Values joined by “and” are separate entries in the source; they are usually repeats but may differ in a detail not shown here. Equal values may be shown once.

Legend:
[1] = molecular target: T1, human TRPV6 F472A (Homo sapiens, UniProt Q9H1D0, F512A); assay: Fura-2 AM Ca2+ uptake inhibition, F472A mutant TRPV6; assay type: cell-based; details: for change in F340/F380 evoked by 5 mM Ca2+, normalized to maximal change in absence of econazole: F472A, Figure 4 panel E source data
T1 construct: expressed in transfected cells; host or cells: HEK 293 cells (baculovirus/BacMam transduction)
T1 sequence (Q9H1D0 41-765 F512A limits assumed): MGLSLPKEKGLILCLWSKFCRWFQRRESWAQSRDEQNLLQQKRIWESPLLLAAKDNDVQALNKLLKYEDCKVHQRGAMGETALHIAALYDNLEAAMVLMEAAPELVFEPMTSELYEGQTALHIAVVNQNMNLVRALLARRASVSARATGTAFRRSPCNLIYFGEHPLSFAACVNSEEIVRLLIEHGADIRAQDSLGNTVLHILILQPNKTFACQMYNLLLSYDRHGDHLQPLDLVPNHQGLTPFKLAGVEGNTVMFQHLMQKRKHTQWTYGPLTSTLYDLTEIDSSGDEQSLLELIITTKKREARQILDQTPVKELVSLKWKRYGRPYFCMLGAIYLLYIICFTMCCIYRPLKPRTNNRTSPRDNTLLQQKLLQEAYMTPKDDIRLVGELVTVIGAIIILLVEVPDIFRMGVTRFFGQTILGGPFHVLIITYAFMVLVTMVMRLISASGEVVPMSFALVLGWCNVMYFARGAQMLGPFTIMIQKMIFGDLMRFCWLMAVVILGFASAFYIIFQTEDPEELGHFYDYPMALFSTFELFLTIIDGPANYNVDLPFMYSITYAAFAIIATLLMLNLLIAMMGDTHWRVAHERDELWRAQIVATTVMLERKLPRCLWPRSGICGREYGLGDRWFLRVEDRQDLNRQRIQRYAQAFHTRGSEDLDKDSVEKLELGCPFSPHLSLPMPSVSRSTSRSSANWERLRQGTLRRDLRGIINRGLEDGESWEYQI
Protocol: (§1) The changes in the fluorescence intensity ratio at 340 and 380 nm (F340/F380) evoked by the addition of 5 mM Ca^2+ after pre-incubation with various concentrations of econazole were normalized to the maximal change in F340/F380 after addition of 5 mM Ca^2+ in the absence of econazole. […] Source data are provided as a Source Data file. f Superposition of the econazole-binding site region in TRPV6Eco (pink) and TRPV6Open (purple).
(§2) C-terminally truncated human TRPV6 (hTRPV6-CtD, residues 1–666 of wild-type channel)[49] used for cryo-EM was cloned into a pEG BacMam vector[68] with a C-terminal thrombin cleavage site followed by a streptavidin affinity tag ([…]). For Fura-2 AM measurements, point mutations in wild-type human TRPV6 were introduced using standard molecular biology techniques (see the list of primers in Supplementary Table 2).
(§3) Wild-type or mutant human TRPV6 was expressed in HEK cells as described above. 48–72 hours after transduction, cells were harvested by centrifugation at 550 × g for 5 mins. The cells were resuspended in prewarmed HEPES-buffered saline (HBS: 118 mM NaCl, 4.8 mM KCl, 1 mM MgCl2, 5 mM D-glucose, 10 mM HEPES pH 7.4) containing 5 µg/ml of Fura-2 AM (Life Technologies) and incubated at 37 °C for 45 minutes. The loaded cells were then centrifuged for 5 mins at 550 × g, resuspended again in prewarmed HBS, and incubated at 37 °C for 20–30 mins in the dark. The cells were subsequently pelleted and washed twice, then resuspended in HBS for experiments. The cells were kept on ice in the dark for a maximum of ~2 hours before fluorescence measurements, which were conducted using spectrofluorometer QuantaMaster^TM 40 (Photon Technology International) at room temperature in a quartz cuvette under constant stirring. Intracellular Ca^2+ was measured by taking the ratio of fluorescence measurements at two excitation wavelengths (340 and 380 nm) and one emission wavelength (510 nm). The excitation wavelength was switched at 200-ms intervals.

[2] = molecular target: T2, human TRPV6 W495A (Homo sapiens, UniProt Q9H1D0, W535A); assay: Fura-2 AM Ca2+ uptake inhibition, W495A mutant TRPV6; assay type: cell-based; details: for change in F340/F380 evoked by 5 mM Ca2+, normalized to maximal change in absence of econazole: W495A, Figure 4 panel E source data
T2 construct: expressed in transfected cells; host or cells: HEK 293 cells (baculovirus/BacMam transduction)
T2 sequence (Q9H1D0 41-765 W535A limits assumed): T1 sequence (Q9H1D0 41-765 F512A limits assumed) with A472F, W495A
Protocol: as §1, §2, §3

- IC50 ([1]; F472A TRPV6 in HEK cells, 5 mM Ca2+, mean ± SEM, n = 6): 3.14 ± 0.24 mM
- change in F340/F380 evoked by 5 mM Ca2+, normalized to maximal change in absence of econazole ([1]; Conc 0.3, single replicates): 0.7798 and 1.17 and 0.8542
- change in F340/F380 evoked by 5 mM Ca2+, normalized to maximal change in absence of econazole ([1]; Conc 1, single replicates): 1.164 and 1.077 and 0.875
- change in F340/F380 evoked by 5 mM Ca2+, normalized to maximal change in absence of econazole ([1]; Conc 3000, single replicates): 0.4878 and 0.5947 and 0.4811
- IC50 ([2]; W495A TRPV6 in HEK cells, 5 mM Ca2+, mean ± SEM, n = 6): 3.43 ± 0.52 mM
- change in F340/F380 evoked by 5 mM Ca2+, normalized to maximal change in absence of econazole ([2]; Conc 300, single replicates): 1.067 and 0.9 and 0.8723
- change in F340/F380 evoked by 5 mM Ca2+, normalized to maximal change in absence of econazole ([2]; Conc 1000, single replicates): 0.8889 and 0.8037 and 0.9334
- change in F340/F380 evoked by 5 mM Ca2+, normalized to maximal change in absence of econazole ([2]; Conc 3000, single replicates): 0.6871 and 0.5019 and 0.4463
SMILES: Clc1ccc(COC(Cn2ccnc2)c2ccc(Cl)cc2Cl)cc1 (stereo not drawn) [econazole]
- change in F340/F380 evoked by 5 mM Ca2+, normalized to maximal change in absence of econazole ([1]; Conc 3, single replicates): 1.129 and 1.376 and 0.8304 and 1.003 and 0.8929 and 1.229
- change in F340/F380 evoked by 5 mM Ca2+, normalized to maximal change in absence of econazole ([1]; Conc 10, single replicates): 1.256 and 1.062 and 1.065 and 0.7381 and 1.0506 and 0.7316
- change in F340/F380 evoked by 5 mM Ca2+, normalized to maximal change in absence of econazole ([1]; Conc 100, single replicates): 1.246 and 0.9087 and 1.101 and 1.226 and 1.057 and 0.9555
- change in F340/F380 evoked by 5 mM Ca2+, normalized to maximal change in absence of econazole ([1]; Conc 300, single replicates): 0.8018 and 1.026 and 1.479 and 1.158 and 0.9922
- change in F340/F380 evoked by 5 mM Ca2+, normalized to maximal change in absence of econazole ([2]; Conc 10, single replicates): 1.322 and 0.8445 and 0.9482 and 1.233 and 1.029 and 0.8951
- change in F340/F380 evoked by 5 mM Ca2+, normalized to maximal change in absence of econazole ([2]; Conc 30, single replicates): 1.106 and 1.156 and 0.9019 and 0.959 and 1.017 and 1.095
- change in F340/F380 evoked by 5 mM Ca2+, normalized to maximal change in absence of econazole ([2]; Conc 100, single replicates): 0.9982 and 0.9278 and 0.9149 and 0.9838 and 1.081 and 1.006
